Measured values as given in ChEMBL document CHEMBL1201862, “PubChem BioAssay data set” (2004).
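Briefly, cells in 96-well plates were exposed to five compound concentrations for 48 h, and endpoints were estimated by linear interpolation. Abbreviation: GI50, concentration required for 50% inhibition of growth.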 Activity calls are given as the source filed them. Rule as the data show it: active = GI50 up to about 1.1 µM and inactive = higher.

Assays:
Experiment in all cases: NCI-60 cell line screen, 48 h
M14 = test system: M14
KM12 = test system: KM12
NCI-H23 = test system: NCI-H23
MOLT-4 = test system: MOLT-4
ACHN = test system: ACHN
HL-60 = test system: HL-60
RXF 393 = test system: RXF 393
OVCAR-4 = test system: OVCAR-4
RPMI-8226 = test system: RPMI-8226
HCC 2998 = test system: HCC 2998
HOP-92 = test system: HOP-92
LOX IMVI = test system: LOX IMVI
HCT-15 = test system: HCT-15
CAKI-1 = test system: CAKI-1
OVCAR-8 = test system: OVCAR-8
OVCAR-5 = test system: OVCAR-5
NCI-H460 = test system: NCI-H460
OVCAR-3 = test system: OVCAR-3
SR = test system: SR

With `O=C1CC(O)(c2ccccc2)C(c2ccccc2)=C1c1ccccc1` (stereo unspecified) the GI50 (M14) was 35.4 µM (inactive), the GI50 (KM12) was 37.9 µM (inactive) and the GI50 (NCI-H23) was 35.9 µM (inactive). For the same compound, the GI50 (MOLT-4) was 25.2 µM (inactive), the GI50 (ACHN) was 38 µM (inactive) and the GI50 (HL-60) was 24.3 µM (inactive). For the same compound, the GI50 (RXF 393) was 28.7 µM (inactive), the GI50 (OVCAR-4) was 34.1 µM (inactive) and the GI50 (RPMI-8226) was 20.7 µM (inactive). For the same compound, the GI50 (HCC 2998) was 57.1 µM (inactive), the GI50 (HOP-92) was 17.3 µM (inactive) and the GI50 (LOX IMVI) was 38.2 µM (inactive). For the same compound, the GI50 (HCT-15) was 32.3 µM, the GI50 (CAKI-1) was 31.3 µM (inactive) and the GI50 (OVCAR-8) was 47 µM (inactive). For the same compound, the GI50 (OVCAR-5) was > 100 µM (inactive), the GI50 (NCI-H460) was 33.2 µM (inactive) and the GI50 (OVCAR-3) was 29.4 µM (inactive).
For `COC(=O)NN1C(C)=C(C(=O)OC)C2(CCOC2=O)C1(C)O` (stereo unspecified), the GI50 (M14) was > 100 µM (inactive), the GI50 (KM12) was > 100 µM (inactive) and the GI50 (NCI-H23) was > 100 µM (inactive). The GI50 (MOLT-4) was > 100 µM (inactive), the GI50 (ACHN) was > 100 µM (inactive) and the GI50 (HL-60) was > 100 µM (inactive). For the same compound, the GI50 (OVCAR-4) was > 100 µM (inactive), the GI50 (RPMI-8226) was > 100 µM (inactive) and the GI50 (HCC 2998) was > 100 µM (inactive). The GI50 (HOP-92) was > 100 µM (inactive), the GI50 (LOX IMVI) was > 100 µM (inactive) and the GI50 (HCT-15) was over 100 µM. The GI50 (CAKI-1) was > 100 µM (inactive), the GI50 (OVCAR-8) was > 100 µM (inactive) and the GI50 (OVCAR-5) was > 100 µM (inactive). For the same compound, the GI50 (NCI-H460) was > 100 µM (inactive) and the GI50 (OVCAR-3) was > 100 µM (inactive).
`C=C=C[P+](c1ccccc1)(c1ccccc1)c1ccccc1` was tested, and the GI50 (M14) was 6.05 µM (inactive), the GI50 (KM12) was 13 µM (inactive) and the GI50 (MOLT-4) was 2.6 µM (inactive). For the same compound, the GI50 (ACHN) was 14.5 µM (inactive), the GI50 (HL-60) was 5.08 µM (inactive) and the GI50 (OVCAR-4) was 21.9 µM (inactive). For the same compound, the GI50 (RPMI-8226) was 1.55 µM (inactive), the GI50 (HCC 2998) was 42.6 µM (inactive) and the GI50 (HCT-15) was 11.5 µM. The GI50 (OVCAR-8) was 3.13 µM (inactive), the GI50 (SR) was 21.3 µM (inactive) and the GI50 (NCI-H460) was 18.2 µM (inactive). For the same compound, the GI50 (OVCAR-3) was 5.57 µM (inactive).
`COc1cc2c(cc1OC)C(=O)Cc1ccc(OC)c(OC)c1CN(C)CC2` was tested, and the GI50 (M14) was > 100 µM (inactive), the GI50 (KM12) was > 100 µM (inactive) and the GI50 (NCI-H23) was > 100 µM (inactive). The GI50 (MOLT-4) was > 100 µM (inactive), the GI50 (ACHN) was 27.7 µM (inactive) and the GI50 (OVCAR-4) was > 100 µM (inactive). The GI50 (RPMI-8226) was > 100 µM (inactive), the GI50 (HCC 2998) was > 100 µM (inactive) and the GI50 (HOP-92) was 20.5 µM (inactive). The GI50 (LOX IMVI) was > 100 µM (inactive), the GI50 (HCT-15) was over 100 µM and the GI50 (CAKI-1) was > 100 µM (inactive). For the same compound, the GI50 (OVCAR-8) was > 100 µM (inactive), the GI50 (OVCAR-5) was > 100 µM (inactive) and the GI50 (NCI-H460) was 15.6 µM (inactive). The GI50 (OVCAR-3) was > 100 µM (inactive).
For `CCOC(=O)[C@H]1Nc2ccccc2C2c3ccccc3CC21` (stereo partly specified), the GI50 (M14) was > 100 µM (inactive), the GI50 (KM12) was 71 µM (inactive) and the GI50 (NCI-H23) was 79.6 µM (inactive). For the same compound, the GI50 (MOLT-4) was 24.4 µM (inactive), the GI50 (ACHN) was > 100 µM (inactive) and the GI50 (RXF 393) was 3.3 µM (inactive). For the same compound, the GI50 (OVCAR-4) was 38.2 µM (inactive), the GI50 (RPMI-8226) was 37.9 µM (inactive) and the GI50 (HCC 2998) was 48.3 µM (inactive). The GI50 (LOX IMVI) was > 100 µM (inactive), the GI50 (HCT-15) was 49 µM and the GI50 (CAKI-1) was > 100 µM (inactive). The GI50 (OVCAR-8) was 48.5 µM (inactive), the GI50 (OVCAR-5) was 31.7 µM (inactive) and the GI50 (SR) was 27.4 µM (inactive). For the same compound, the GI50 (NCI-H460) was 38.6 µM (inactive) and the GI50 (OVCAR-3) was 29.6 µM (inactive).
`O=C1OC(CC(=O)c2ccc(Cl)cc2)C(Cl)=C1Cl` (stereo unspecified) was tested, and the GI50 (M14) was > 100 µM (inactive), the GI50 (KM12) was > 100 µM (inactive) and the GI50 (NCI-H23) was > 100 µM (inactive). The GI50 (MOLT-4) was 39.2 µM (inactive), the GI50 (ACHN) was > 100 µM (inactive) and the GI50 (HL-60) was 26 µM (inactive). For the same compound, the GI50 (OVCAR-4) was > 100 µM (inactive), the GI50 (RPMI-8226) was 46.6 µM (inactive) and the GI50 (HCC 2998) was > 100 µM (inactive). For the same compound, the GI50 (HOP-92) was > 100 µM (inactive), the GI50 (HCT-15) was over 100 µM and the GI50 (CAKI-1) was > 100 µM (inactive). The GI50 (OVCAR-8) was > 100 µM (inactive), the GI50 (OVCAR-5) was > 100 µM (inactive) and the GI50 (SR) was 48.3 µM (inactive). For the same compound, the GI50 (NCI-H460) was > 100 µM (inactive) and the GI50 (OVCAR-3) was > 100 µM (inactive).
`O=C(c1ccc(NCN2C(=O)CCC2=O)cc1)c1ccc(NCN2C(=O)CCC2=O)cc1` was tested, and the GI50 (M14) was > 100 µM (inactive), the GI50 (KM12) was > 100 µM (inactive) and the GI50 (NCI-H23) was > 100 µM (inactive). The GI50 (MOLT-4) was > 100 µM (inactive), the GI50 (ACHN) was > 100 µM (inactive) and the GI50 (HL-60) was 18.9 µM (inactive). For the same compound, the GI50 (RXF 393) was > 100 µM (inactive), the GI50 (OVCAR-4) was > 100 µM (inactive) and the GI50 (RPMI-8226) was 20.4 µM (inactive). For the same compound, the GI50 (HCC 2998) was > 100 µM (inactive), the GI50 (HOP-92) was > 100 µM (inactive) and the GI50 (LOX IMVI) was > 100 µM (inactive). For the same compound, the GI50 (HCT-15) was 45.2 µM, the GI50 (OVCAR-8) was > 100 µM (inactive) and the GI50 (OVCAR-5) was > 100 µM (inactive). The GI50 (NCI-H460) was > 100 µM (inactive) and the GI50 (OVCAR-3) was > 100 µM (inactive).
`CN(CCNC(=O)c1cn(C)c2c1ccc1ccccc12)CCNC(=O)c1cn(C)c2c1ccc1ccccc12` was tested, and the GI50 (M14) was 1.95 µM (inactive), the GI50 (KM12) was 1.79 µM (inactive) and the GI50 (NCI-H23) was 3.14 µM (inactive). For the same compound, the GI50 (MOLT-4) was 2.55 µM (inactive), the GI50 (ACHN) was 3.36 µM (inactive) and the GI50 (OVCAR-4) was 5.62 µM (inactive). For the same compound, the GI50 (RPMI-8226) was 2.59 µM (inactive), the GI50 (HCC 2998) was 0.71 µM (active) and the GI50 (HOP-92) was 2.07 µM (inactive). The GI50 (LOX IMVI) was 2.52 µM (inactive), the GI50 (HCT-15) was 1.26 µM and the GI50 (CAKI-1) was 2.47 µM (inactive). The GI50 (OVCAR-8) was 27.9 µM (inactive), the GI50 (OVCAR-5) was 1.69 µM (inactive) and the GI50 (NCI-H460) was 1.85 µM (inactive). The GI50 (OVCAR-3) was 2.26 µM (inactive).
